The test system of test [1] is DLD1 Human Colon Carcinoma. As to the kind of experiment: Human tumor xenograft test, DLD1 colon carcinoma. It is filed as in vivo, athymic mice. Conditions: for T/C on day 0 / T/C on day 7 / T/C on day 14: schedule days 1, 7, DLD1. (In xenograft studies the graft and the host belong to different species.)
The test system of test [2] is KB-V1 cells. As to the kind of experiment: MTS cytotoxicity test with KB-V1 cells (very high P-glycoprotein). It counts as cell-based, human. Conditions: for Ratio VI/KB: IC50 on KB VI cells/IC50 on KB cells; for IC50: KB VI cells, mean of 2 experiments. The text has this:
Human cancer cell lines, unless otherwise noted, are obtained from the American Type Culture Collection (Rockville, Md.). The following drug-sensitive parental cell lines, and their derived drug-resistant counterparts, are obtained from the originators as listed: (a) S1 (parental line from a subclone of human colon carcinoma line LS174T) and derived S1-M1-3.2 (herein called S1-M1) which expresses the MXR drug transporter protein, are provided by Dr. L. Greenberger, Wyeth Research (Rabindran, S. K., He, H., Singh, M., Brown, E., Collins, K. I., Annable, T., and Greenberger, L. M. Reversal of a novel multidrug resistance mechanism in human colon carcinoma cells by fumitremorgin C. Cancer Res., 58: 5850-5858, 1998); (b) parental HL-60 human promyelocytic leukemia line and derived HL-60/ADR, which expresses the MRP1 drug transporter protein, are provided by Dr. M. Center, University of Kansas (McGrath, T., and Center, M. S. Adriamycin resistance in HL60 cells in the absence of detectable P-glycoprotein. Biochem. Biophys. […] J. Biol. Chem., 261: 7762-7770, 1986) via Dr. L. Greenberger, Wyeth Research.
The assay, which is sold in kit form by Promega (Madison, Wis.; CellTiter 96 AQueous Non-Radioactive Cell Proliferation Assay), is based on the conversion by viable cells, but not by dead cells, of the tetrazolium salt, MTS (3-(4,5-dimethylthiazol-2-yl)-5-(3-carboxymethoxyphenyl)-2-(4-sulphophenyl)-2H-tetrazolium, inner salt), into a water-soluble colored formazan which is detected by spectrophotometry. Compounds are tested at nine concentrations, in order to determine IC50 values. For the test procedure, cells are harvested by trypsinization, washed, counted and distributed to wells of 96-well flat-bottom microtiter plates at 1000 cells per well in 200 μL of medium. In addition, one row of wells on a separate plate receives cells as above (“time 0” plate). All plates are incubated at 37° in humidified 5% CO2 in air for about 24 hr.
On day 2, compounds for test are diluted and added to wells. Compounds are dissolved in DMSO at 10 mg/mL. For each compound, nine serial 2-fold dilutions are prepared in DMSO. Ten μL of each dilution in DMSO are transferred to 100 μL of medium, mixed well, and then 5 μL of this dilution are transferred in quadruplicate to wells containing cells. […] Plates are returned to the incubator for three days. At the time of drug addition to the experimental plates, the MTS assay is run on the “time 0” plate. This produces the “time 0 MTS value” which is related to the number of viable cells per well at the time of drug addition.
After three days of culture with test compounds (day 5 overall), the MTS assay is done on all wells of the experimental plates. The absorbance values of the quadruplicate sample wells are averaged and divided by the average of the “time 0” values. […] The nine values for each compound are plotted against concentration, and the concentration that produces a relative color yield half way between the maximum and minimum is taken as the IC50 value.
For orientation: Tetrazolium assays rely on reduction of a dye to a coloured formazan, in cell work by metabolically active cells.

In test [3] the test system is MAP-rich tubulin. Kind of test: Tubulin polymerization test with MAP-rich tubulin. It counts as biochemical, bovine. Conditions: 0.3 μM compound, mean A340 at 20 min, fold enhancement over control. The method, then: (§1) Medium is RPMI-1640 with L-glutamine, supplemented with 10% heat-inactivated fetal calf serum, 100 units/mL penicillin, and 100 μg/mL streptomycin (Gibco, Grand Island, N.Y.). Microtubule-associated protein (MAP)-rich tubulin, containing about 70% tubulin and 30% MAPs (#ML113), and highly purified tubulin (>99% pure, #TL238), both from bovine brain, are obtained from Cytoskeleton, Inc., Denver, Colo. PEM buffer (80 mM piperazine-N,N′-bis[2-ethanesulfonic acid], pH 6.9, 1 mM ethylene glycol-bis(β-aminoethyl ether)-N,N,N′,N′-tetraacetic acid, 1 mM magnesium chloride) and guanosine 5′-triphosphate (GTP) are also obtained from Cytoskeleton. […] [^3H]vinblastine, specific activity 9.60 Ci/mmol and MicroSpin G-50 columns are obtained from Amersham Biosciences (Piscataway, N.J.). […] Other reagents are obtained from Sigma (St. Louis, Mo.).
MAP-rich tubulin is dissolved in ice-cold PEM buffer containing 1 mM GTP (GPEM buffer) at a concentration of 1.3 mg/mL. The solution is centrifuged at top speed in an Eppendorf model 5415C microcentrifuge (Brinkmann Instruments, Westbury, N.Y.) for 10 min at 4° immediately before use. The tubulin solution is added to wells of a ½-area 96-well plate (Costar No. 3696, Corning, Inc., Corning, N.Y.) already containing the compounds of interest. Each compound is tested in duplicate at a final concentration of 0.3 μM in a volume of 110 μL per well. The final DMSO concentration in all wells is 0.3%. Control reactions, which receive compound solvent only, are done in quadruplicate. The plate is put in a SpectraMax Plus plate reader (Molecular Devices Corp. Sunnyvale, Calif.) thermostated at 24° and the absorbance of each well at 340 nm, a measure of the appearance of turbidity due to tubulin polymer formation, is determined every minute for 60 minutes. The absorbance at time 0 for each well is subtracted from each of the subsequent absorbance readings for that well, and then the duplicates are averaged.

Test [4] relates to highly purified tubulin (tubulin heterodimer). Kind of test: Competitive binding test, [3H]vinblastine. On the set-up: species or system bovine. To be noted: competitor 100 μM, [3H]vinblastine 100 nM, percent of binding to control without competitor. How it is done: as §1
(§2) The binding of examples of this invention to highly purified tubulin is studied by competitive inhibition methods.
(§3) These solutions are incubated at 24° for 1 hr and then applied to MicroSpin G-50 columns which are centrifuged for 2 min at 3000 rpm in an Eppendorf 5415C microfuge. An aliquot of each column effluent (containing tubulin and bound radioligand) is mixed with scintillation fluid and counted in a liquid scintillation spectrometer. […] Quadruplicates are averaged, and the ability of the competitor to inhibit the binding of the radioligand is expressed as a percentage of control binding in the absence of any competitor.

Test [5] has the same test system. Kind of test: Competitive binding test, [3H]colchicine. On the set-up: species or system bovine. To be noted: competitor 100 μM, [3H]colchicine 50 nM, percent of binding to control without competitor. The method, then:
as §1, §2, §3

Molecules are shown by their SMILES. Marks after values point to notes of the source that are not given here.

The IC50 is the midpoint of a concentration-inhibition curve. High values mean weaker potency in that assay, low ones greater potency in that assay. As to `CNCCCOc1cc(F)c(-c2c(Cl)nc(-c3cnccn3)nc2N[C@@H](C)C(F)(F)F)c(F)c1.Cl` [Example 24a, 6-Chloro-5-{2,6-difluoro-4-[3-(methylamino)propoxy]phenyl}-2-pyrazin-2-yl-N-[(1S)-2,2,2-trifluoro-1-methylethyl]pyrimidin-4-amine hygrogen chloride], the “T/C on day 0” value in test [1] (5 mg/kg IV), in test [1] (5 mg/kg PO), in test [1] (10 mg/kg IV) and in test [1] (10 mg/kg PO) was 1.0 throughout. The “T/C on day 7” value in test [1] (5 mg/kg IV) is on record as 0.24**; in test [1] (5 mg/kg PO), 1.07; in test [1] (10 mg/kg IV), “Toxic”; in test [1] (10 mg/kg PO), 0.82. Moreover, the “T/C on day 14” value in test [1] (5 mg/kg IV) was “Toxic”; in test [1] (5 mg/kg PO), 0.85; in test [1] (10 mg/kg PO), 0.28**. Moreover, in test [1] (DLD1 colon carcinoma, orally on days 1 and 7 at 10 mg/kg/dose), the growth of tumor entry is on record as “inhibits the growth”. For the same molecule, the “Ratio VI/KB” value in test [2] amounted to 58. The IC50 in test [2] stood at 405 nM. Besides, the “A340 Compound / A340 Control” value in test [3] was determined as 2.3.

On to `CNCCCOc1cc(F)c(-c2c(Cl)nc(-c3ccccn3)nc2N[C@@H](C)C(F)(F)F)c(F)c1.Cl` [Example 29a, 6-Chloro-5-{2,6-difluoro-4-[3-(methylamino)propoxy]phenyl}-2-pyridin-2-yl-N-[(S)-2,2,2-trifluoro-1-methylethyl]pyrimidin-4-amine hydrogen chloride], for which the “T/C on day 0” value in test [1] (1 mg/kg IV), in test [1] (1 mg/kg PO), in test [1] (5 mg/kg IV) and in test [1] (5 mg/kg PO) was 1.0 each time. For the same molecule, the “T/C on day 7” value in test [1] (1 mg/kg IV) is 0.63*; in test [1] (1 mg/kg PO), 1.40; in test [1] (5 mg/kg IV), 0.22**; in test [1] (5 mg/kg PO), 0.79. Also, the “T/C on day 14” value is on record as 0.71* in test [1] (1 mg/kg IV), 1.02 in test [1] (1 mg/kg PO), “Toxic” in test [1] (5 mg/kg IV) and 0.59* in test [1] (5 mg/kg PO). This molecule returned a 50% inhibitory concentration (IC50) in test [2] (Homo sapiens, KB-V1) of 423 nM. Also, in test [2], the “Ratio VI/KB” value stood at 69. In addition, the “A340 Compound / A340 Control” value in test [3] turned out to be 2.4.

`CNCCCOc1cc(F)c(-c2c(Cl)nc(-n3cccn3)nc2N[C@@H](C)C(F)(F)F)c(F)c1.Cl` [Example 32a, 6-Chloro-5-{2,6-difluoro-4-[3-(methylamino)propoxy]phenyl}-2-(1H-pyrazol-1-yl)-N-[(1S)-2,2,2-trifluoro-1-methylethyl)pyrimidin-4-amine Hydrogen Chloride] showed an IC50 in test [2] (Homo sapiens, KB-V1) of 569 nM. For the same molecule, the “Ratio VI/KB” value in test [2] worked out at 242. Moreover, in test [3], the “A340 Compound / A340 Control” value stood at 2.3.

On to `CC(=O)O[C@H]1C(=O)[C@@]2(C)[C@H]([C@H](OC(=O)c3ccccc3)[C@]3(O)C[C@H](OC(=O)[C@H](O)[C@@H](NC(=O)c4ccccc4)c4ccccc4)C(C)=C1C3(C)C)[C@]1(OC(C)=O)CO[C@@H]1C[C@@H]2O` [Paclitaxel, reference compound], for which the “[3H]Vinblastine binding, Mean” value in test [4] is 92 % of control. For the same molecule, the “[3H]Colchicine binding, Mean” value in test [5] is given as 93 % of control. This molecule also showed an IC50 in test [2] (Homo sapiens, KB-V1) of 2010 nM. Moreover, the “A340 Compound / A340 Control” value in test [3] was 2.4.

For the molecule `CC[C@]1(O)C[C@H]2CN(CCc3c([nH]c4ccccc34)[C@@](C(=O)OC)(c3cc4c(cc3OC)N(C=O)[C@H]3[C@@](O)(C(=O)OC)[C@H](OC(C)=O)[C@]5(CC)C=CCN6CC[C@]43[C@@H]65)C2)C1` [Vincristine, reference compound], the “[3H]Vinblastine binding, Mean” value was 5 % of control in test [4] and “inhibits [^3H]vinblastine binding” in test [4] (listed as vincristine). In test [5], the “[3H]Colchicine binding, Mean” value is recorded as 99 % of control. The same molecule came in with an IC50 in test [2] (Homo sapiens, KB-V1) of 2040 nM. Also, the “Ratio VI/KB” value in test [2] is listed as 925. The “A340 Compound / A340 Control” value in test [3] is on record as 0.2.

Source of the values: patent US7524849B2, “5-arylpyrimidines as anticancer agents” (Wyeth Holdings Corporation, priority 2003, dated 2009).
